Where a name gives a salt, the structure may show the parent alone. Read-outs that look alike come from different tables or passages of the source.
Key:
[1] = target: T1, SARS-CoV-2 PLpro (nsp3 1564–1878) (Severe acute respiratory syndrome coronavirus 2, UniProt P0DTD1); assay: biochemical; design: FRET-quenched peptide (Pro3) cleavage by PLpro, 10 min pre-incubation, slope over 20 min, normalised to no-compound control; conditions: low concentration screen, read-out: % of control remaining
[2] = target: T1, SARS-CoV-2 PLpro (nsp3 1564–1878); assay: biochemical; design: FRET-quenched peptide (Pro3) cleavage by PLpro, 10 min pre-incubation, slope over 20 min, normalised to no-compound control; conditions: high concentration screen, read-out: % of control remaining

## COc1ccc(C[C@H]2c3cc(OC)c(OC)cc3CC[N+]2(C)C)cc1OC [Laudanosine methiodide]
[1]; Well no.=3589
  remaining activity at 1.25 µM: 103%
[2]; Well no.=3589
  remaining activity at 3.75 µM: 106%

## CN1CCC2=C(C1)c1ccccc1Cc1ccccc12 [Setiptiline]
[1]; Well no.=6857
  remaining activity at 1.25 µM: 98.8%
[2]; Well no.=6857
  remaining activity at 3.75 µM: 94.5%

## C[C@H](CSC(=O)c1ccccc1)C(=O)N1C[C@@H](Sc2ccccc2)C[C@H]1C(=O)O [Zofenopril calcium]
[1]; Well no.=5564
  remaining activity at 1.25 µM: 102%
[2]; Well no.=5564
  remaining activity at 3.75 µM: 103%

## N#Cc1cnc2cnc(NCc3cccnc3)cc2c1Nc1ccc(F)c(Cl)c1 [Tpl2 Kinase Inhibitor]
[1]; Well no.=2662
  remaining activity at 1.25 µM: 92.4%
[2]; Well no.=2662
  remaining activity at 3.75 µM: 89.7%

## CC(=O)NS(=O)(=O)c1ccc(NC(=O)c2ccccc2C(=O)O)cc1 [Phthalylsulfacetamide]
[1]; Well no.=7356
  remaining activity at 1.25 µM: 105%
[2]; Well no.=7356
  remaining activity at 3.75 µM: 100%

## CCCCC[C@H](O)/C=C/C=C/C/C=C\CCCC(=O)O [12(S)-HHT]
[1]; Well no.=4234
  remaining activity at 1.25 µM: 101%
[2]; Well no.=4234
  remaining activity at 3.75 µM: 103%

## O=C(O)c1ccccc1C(=O)Nc1ccc(S(=O)(=O)Nc2nccs2)cc1 [Phthalylsulfathiazole]
[1]; Well no.=7314
  remaining activity at 1.25 µM: 97.8%
[2]; Well no.=7314
  remaining activity at 3.75 µM: 95.3%

## CCc1cnn2c(NCc3ccc[n+]([O-])c3)cc(N3CCCC[C@H]3CCO)nc12 [Dinaciclib (SCH727965)]
[1]; Well no.=5081
  remaining activity at 1.25 µM: 99.7%
[2]; Well no.=5081
  remaining activity at 3.75 µM: 105%

## COc1cc2ncnc(Nc3ccc(Cl)cc3Cl)c2cc1OC [Ste11 MAPKKK Activation Inhibitor]
[1]; Well no.=2673
  remaining activity at 1.25 µM: 96.8%
[2]; Well no.=2673
  remaining activity at 3.75 µM: 99.8%

## COc1ccccc1N1CCN(CCN(C(=O)C2CCCCC2)c2ccccn2)CC1 [WAY-100635 (maleate salt)]
[1]; Well no.=7000
  remaining activity at 1.25 µM: 99.7%
[2]; Well no.=7000
  remaining activity at 3.75 µM: 99.5%

## Cn1c(O)c(-c2[nH]c3ccccc3c2N=O)c2ccc(Br)cc21 [GSK-3 Inhibitor IX, Control, MeBIO]
[1]; Well no.=2427
  remaining activity at 1.25 µM: 106%
[2]; Well no.=2427
  remaining activity at 3.75 µM: 108%

## Oc1ccc([C@H]2COc3cc(O)ccc3C2)cc1 [Equol]
[1]; Well no.=5252
  remaining activity at 1.25 µM: 99.7%
[2]; Well no.=5252
  remaining activity at 3.75 µM: 99.3%

## c1cc(-c2cnn3cc(-c4ccc(N5CCNCC5)cc4)cnc23)c2cccnc2c1 [5-(6-(4-(piperazin-1-yl)phenyl)pyrazolo[1,5-a]pyrimidin-3-yl)quinoline]
[1]; Well no.=6009
  remaining activity at 1.25 µM: 104%
[2]; Well no.=6009
  remaining activity at 3.75 µM: 101%

## S=c1ccss1 [1,2-Dithiole-3-thione]
[1]; Well no.=4139
  remaining activity at 1.25 µM: 93.1%
[2]; Well no.=4139
  remaining activity at 3.75 µM: 94.1%

## CCN1CCN(Cc2ccc(-c3cc4c(N[C@H](C)c5ccccc5)ncnc4[nH]3)cc2)CC1 [AEE788 (NVP-AEE788)]
[1]; Well no.=5247
  remaining activity at 1.25 µM: 102%
[2]; Well no.=5247
  remaining activity at 3.75 µM: 102%

## CC(C)=CCC[C@](C)(O)[C@H]1CC[C@]2(C)[C@@H]1[C@H](O)C[C@@H]1[C@@]3(C)CC[C@H](O)C(C)(C)[C@@H]3CC[C@]12C [(20S)-Protopanaxadiol]
[1]; Well no.=6300
  remaining activity at 1.25 µM: 106%
[2]; Well no.=6300
  remaining activity at 3.75 µM: 99.5%

## COc1ccc(CC[C@@H](OC(=O)[C@@H]2CCCCN2C(=O)[C@H](c2cc(OC)c(OC)c(OC)c2)C2CCCCC2)c2cccc(OCCN3CCOCC3)c2)cc1OC [SAFit2]
[1]; Well no.=7064
  remaining activity at 1.25 µM: 96.3%
[2]; Well no.=7064
  remaining activity at 3.75 µM: 92.2%

## CC(CCc1ccccc1)NCC(O)c1ccc(O)c(C(N)=O)c1 (stereo not shown) [Labetalol hydrochloride]
[1]; Well no.=975
  remaining activity at 1.25 µM: 102%
[2]; Well no.=975
  remaining activity at 3.75 µM: 101%

## CC1=C(C)C(=O)C(CCCCC#CCCCC#CCO)=C(C)C1=O [Docebenone]
[1]; Well no.=1917
  remaining activity at 1.25 µM: 90.8%
[2]; Well no.=1917
  remaining activity at 3.75 µM: 90.2%

## CCOC(=O)n1ccn(C)c1=S [Carbimazole]
[1]; Well no.=5124
  remaining activity at 1.25 µM: 104%
[2]; Well no.=5124
  remaining activity at 3.75 µM: 105%

## C[N+]1(C)CCC[C@H]1C(=O)[O-] [Stachydrine]
[1]; Well no.=6917
  remaining activity at 1.25 µM: 109%
[1]; Well no.=7414
  remaining activity at 1.25 µM: 104%
[2]; Well no.=6917
  remaining activity at 3.75 µM: 93.7%
[2]; Well no.=7414
  remaining activity at 3.75 µM: 102%

## COC(=O)C1=CO[C@@H](O)[C@@H]2C(CO)=CC[C@H]12 [Genipin]
[1]; Well no.=5276
  remaining activity at 1.25 µM: 95.9%
[2]; Well no.=5276
  remaining activity at 3.75 µM: 89.2%

## Cn1ccnc1S [Methimazole]
[1]; Well no.=1961
  remaining activity at 1.25 µM: 92.6%
[2]; Well no.=1961
  remaining activity at 3.75 µM: 94.6%

## Nc1ccc(S(=O)(=O)Nc2ccc(Cl)nn2)cc1 [Sulfachloropyridazine]
[1]; Well no.=8360
  remaining activity at 1.25 µM: 93.9%
[2]; Well no.=8360
  remaining activity at 3.75 µM: 92.1%

## Clc1cccc(Cl)c1NC1=NCCN1 [Clonidine (hydrochloride)]
[1]; Well no.=6755
  remaining activity at 1.25 µM: 99.8%
[2]; Well no.=6755
  remaining activity at 3.75 µM: 98.3%

## COc1ccc(CCN(C)CCCC(C#N)(c2ccc(OC)c(OC)c2)C(C)C)cc1OC (stereo not shown) [Verapamil]
[1]; Well no.=1721
  remaining activity at 1.25 µM: 100%
[2]; Well no.=1721
  remaining activity at 3.75 µM: 100%

## CCN1C[C@]2(OC(=O)c3ccccc3NC(C)=O)CC[C@H](OC)[C@@]34[C@@H]2C[C@@H]([C@@H]13)[C@@]1(O)C[C@H](OC)[C@H]2C[C@@H]4[C@]1(O)[C@H]2OC [Lappaconitine]
[1]; Well no.=3653
  remaining activity at 1.25 µM: 103%
[2]; Well no.=3653
  remaining activity at 3.75 µM: 105%

## CC[C@@]1(O)C(=O)OCc2c1cc1n(c2=O)Cc2cc3c(CN(C)C)c(O)ccc3nc2-1 [Topotecan hydrochloride hydrate]
[1]; Well no.=6019
  remaining activity at 1.25 µM: 103%
[2]; Well no.=6019
  remaining activity at 3.75 µM: 99%

## O=C(O)CNC(=O)C1C(=O)N(C2CCCCC2)C(=O)N(C2CCCCC2)C1=O [Daprodustat (GSK1278863)]
[1]; Well no.=8534
  remaining activity at 1.25 µM: 96.6%
[2]; Well no.=8534
  remaining activity at 3.75 µM: 99.9%

## CO[C@H]1[C@@H](O)[C@@H](C)O[C@H](O[C@H]2[C@H](Oc3cccc4c(O)c5c(=O)oc6ccc(C)c7c(=O)oc(c34)c5c67)O[C@H](C)[C@H](O)[C@@H]2O)[C@@H]1O [Chartreusin]
[1]; Well no.=3508
  remaining activity at 1.25 µM: 96.6%
[2]; Well no.=3508
  remaining activity at 3.75 µM: 98.4%

## O=C(/C=C/c1ccc(O)c(O)c1)O[C@H](Cc1ccc(O)c(O)c1)C(=O)O [Rosmarinic acid]
[1]; Well no.=3940
  remaining activity at 1.25 µM: 102%
[1]; Well no.=4516
  remaining activity at 1.25 µM: 95%
[2]; Well no.=3140
  remaining activity at 3.75 µM: 103%
[2]; Well no.=3940
  remaining activity at 3.75 µM: 99.3%
[2]; Well no.=4516
  remaining activity at 3.75 µM: 94.6%

## CCn1cc(C(=O)O)c(=O)c2cc3c(cc21)OCO3 [Oxolinic acid]
[1]; Well no.=1134
  remaining activity at 1.25 µM: 98.1%
[2]; Well no.=1134
  remaining activity at 3.75 µM: 98.5%

## CCCN1CCC[C@@H]2Cc3[nH]ncc3C[C@H]21 [(-)-Quinpirole hydrochloride]
[1]; Well no.=1269
  remaining activity at 1.25 µM: 96.5%
[2]; Well no.=1269
  remaining activity at 3.75 µM: 99.7%

## COc1c(N2C[C@@H]3CCCN[C@@H]3C2)c(F)cc2c(=O)c(C(=O)O)cn(C3CC3)c12 [Moxifloxacin.HCl]
[1]; Well no.=1568
  remaining activity at 1.25 µM: 97.8%
[2]; Well no.=1568
  remaining activity at 3.75 µM: 96.5%

Reference: article PMC8286840, “Identifying SARS-CoV-2 antiviral compounds by screening for small molecule inhibitors of Nsp3 papain-like protease” (Biochemical Journal, 2021)
